Assay results reported in patent US12558428B2, “Heterobifunctional compounds and their use in treating disease” (Halda Therapeutics OpCo, Inc., priority 2024, dated 2026).

test system: T-Rex 293 cells lacking increased expression of estrogen receptor alpha protein; test: Cellular growth inhibition assay, T-Rex 293 cells, (−) doxycycline; format: cell-based; details: T-REx-293, 72 h, Table 7-A; T-Rex 293 cells without doxycycline (lacking increased ERα expression); 72 hours; CellTiter-Glo; read-out: (−) Dox GI50
Summary of the method: (§1)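 Cells of an inducible ERα-expressing T-Rex 293 clone are seeded in charcoal-dextran FBS medium with or without 3 ng/mL doxycycline, then treated after 24 h with compound dilutions (0.5% DMSO) for 72 h. Growth inhibition is measured by CellTiter-Glo luminescence and expressed as GI50.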

Compared with Cc1sc2c(c1C)C(c1ccc(N3CC4(CCC(CN5CCN(c6ccc([C@@H]7c8ccc(O)cc8CC[C@@H]7c7ccccc7)cc6)CC5)CC4)C3)cc1)=N[C@@H](C)c1nnc(C)n1-2 [III-230], Cc1sc2c(c1C)C(c1ccc(N3CC4(CC(CN5CCC(c6ccc([C@@H]7c8ccc(O)cc8CC[C@@H]7c7ccccc7)cc6)CC5)C4)C3)cc1)=N[C@@H](C)c1nnc(C)n1-2 [III-242] is lower in GI50: greater than 2500 nM for the first, 500 to 2500 nM for the second.

Cc1sc2c(c1C)C(c1ccc(N3CCN(CC4CCN(c5ccc([C@@H]6c7ccc(O)cc7CC[C@@H]6c6ccccc6)cc5)CC4)CC3)cc1)=N[C@H](Cc1nccs1)c1nnc(C)n1-2 [III-231] and Cc1sc2c(c1C)C(c1ccc(N3CCN(CC4CCN(c5ccc([C@@H]6c7ccc(O)cc7CC[C@@H]6c6ccccc6)cc5)CC4)CC3)cc1)=N[C@@H](Cc1nccs1)c1nnc(C)n1-2 [III-232] cannot be ordered by GI50: greater than 2500 nM for the first, greater than 2500 nM for the second.

Cc1sc2c(c1C)C(c1ccc(N3CC(C[C@H]4CC[C@H](CN5CC(c6ccc([C@@H]7c8ccc(O)cc8CC[C@@H]7c7ccccc7)cc6)C5)CC4)C3)cc1)=N[C@@H](C)c1nnc(C)n1-2 [III-233] and Cc1sc2c(c1C)C(c1ccc(C3CN(C[C@H]4CC[C@H](CN5CC(c6ccc([C@@H]7c8ccc(O)cc8CC[C@@H]7c7ccccc7)cc6)C5)CC4)C3)cc1)=N[C@@H](C)c1nnc(C)n1-2 [III-234] fall in the same range of GI50: 500 to 2500 nM for the first, 500 to 2500 nM for the second.

Compared with Cc1sc2c(c1C)C(c1ccc(N3CC(CC4(O)CCN(CC5CN(c6ccc([C@@H]7c8ccc(O)cc8CC[C@@H]7c7ccccc7)cc6)C5)CC4)C3)cc1)=N[C@@H](C)c1nnc(C)n1-2 [III-235], Cc1sc2c(c1C)C(c1ccc(N3CC(CC4(O)CN(CC5CN(c6ccc([C@@H]7c8ccc(O)cc8CC[C@@H]7c7ccccc7)cc6)C5)C4)C3)cc1)=NC(C)c1nnc(C)n1-2 (stereo partly drawn) [III-240] is lower in GI50: 500 to 2500 nM for the first, 50 to 500 nM for the second.

Cc1sc2c(c1C)C(c1ccc(N3CCC(O)(CN4CCN(c5cc(F)c([C@@H]6c7ccc(O)cc7CC[C@@H]6c6ccc(F)cc6)c(F)c5)CC4)CC3)cc1)=N[C@@H](C)c1nnc(C)n1-2 [III-236] and Cc1sc2c(c1C)C(c1ccc(N3CCC(O)(CN4CCN(c5cc(F)c([C@H]6c7ccc(O)cc7CC[C@H]6c6ccc(F)cc6)c(F)c5)CC4)CC3)cc1)=N[C@@H](C)c1nnc(C)n1-2 [III-237] fall in the same range of GI50: 500 to 2500 nM for the first, 500 to 2500 nM for the second.

First: Cc1sc2c(c1C)C(c1ccc(N3CC(CC4(O)CCN(CC5CN(c6ccc([C@H]7c8ccc(O)cc8CC[C@H]7c7ccc(F)cc7)cc6)C5)CC4)C3)cc1)=N[C@@H](C)c1nnc(C)n1-2 [III-238]
Second: Cc1sc2c(c1C)C(c1ccc(N3CC(CC4(O)CCN(CC5CN(c6ccc([C@@H]7c8ccc(O)cc8CC[C@@H]7c7ccc(F)cc7)cc6)C5)CC4)C3)cc1)=N[C@@H](C)c1nnc(C)n1-2 [III-239]
The GI50 of the first is higher: 500 to 2500 nM for the first, 50 to 500 nM for the second.

Cc1sc2c(c1C)C(c1ccc(N3CC(O)(CC4CN(CC5CN(c6ccc([C@@H]7c8ccc(O)cc8CC[C@@H]7c7ccccc7)cc6)C5)C4)C3)cc1)=N[C@@H](C)c1nnc(C)n1-2 [III-241] gave a GI50 of 50 to 500 nM.

same assay, conditions: Table 7-A; T-Rex 293 cells without doxycycline (lacking increased ERα expression); 72 hours; CellTiter-Glo; read-out: (−) Dox GI50

Work on Cc1sc2c(c1C)C(c1ccc(N3CC(CN4CC(CC5CN(c6ccc([C@@H]7c8ccc(O)cc8CC[C@@H]7c7ccccc7)cc6)C5)C4)C3)cc1)=N[C@@H](C)c1nnc(C)n1-2 [III-221] yielded a GI50 of 50 to 500 nM.

test system: T-Rex 293 cells having increased expression of estrogen receptor alpha protein; test: Cellular growth inhibition assay, T-Rex 293 cells, (+) doxycycline; format: cell-based; details: T-REx-293, 72 h, Table 7-A; T-Rex 293 cells with doxycycline (increased ERα expression); 72 hours; CellTiter-Glo; read-out: (+) Dox GI50
Summary of the method: as §1

Cc1sc2c(c1C)C(c1ccc(N3CC4(CCC(CN5CCN(c6ccc([C@@H]7c8ccc(O)cc8CC[C@@H]7c7ccccc7)cc6)CC5)CC4)C3)cc1)=N[C@@H](C)c1nnc(C)n1-2 [III-230] and Cc1sc2c(c1C)C(c1ccc(N3CC4(CC(CN5CCC(c6ccc([C@@H]7c8ccc(O)cc8CC[C@@H]7c7ccccc7)cc6)CC5)C4)C3)cc1)=N[C@@H](C)c1nnc(C)n1-2 [III-242] cannot be ordered by GI50: less than 50 nM for the first, less than 50 nM for the second.

Compared with Cc1sc2c(c1C)C(c1ccc(N3CCN(CC4CCN(c5ccc([C@@H]6c7ccc(O)cc7CC[C@@H]6c6ccccc6)cc5)CC4)CC3)cc1)=N[C@H](Cc1nccs1)c1nnc(C)n1-2 [III-231], Cc1sc2c(c1C)C(c1ccc(N3CCN(CC4CCN(c5ccc([C@@H]6c7ccc(O)cc7CC[C@@H]6c6ccccc6)cc5)CC4)CC3)cc1)=N[C@@H](Cc1nccs1)c1nnc(C)n1-2 [III-232] is lower in GI50: greater than 2500 nM for the first, less than 50 nM for the second.

Cc1sc2c(c1C)C(c1ccc(N3CC(C[C@H]4CC[C@H](CN5CC(c6ccc([C@@H]7c8ccc(O)cc8CC[C@@H]7c7ccccc7)cc6)C5)CC4)C3)cc1)=N[C@@H](C)c1nnc(C)n1-2 [III-233] and Cc1sc2c(c1C)C(c1ccc(C3CN(C[C@H]4CC[C@H](CN5CC(c6ccc([C@@H]7c8ccc(O)cc8CC[C@@H]7c7ccccc7)cc6)C5)CC4)C3)cc1)=N[C@@H](C)c1nnc(C)n1-2 [III-234] cannot be ordered by GI50: less than 50 nM for the first, less than 50 nM for the second.

Cc1sc2c(c1C)C(c1ccc(N3CC(CC4(O)CCN(CC5CN(c6ccc([C@@H]7c8ccc(O)cc8CC[C@@H]7c7ccccc7)cc6)C5)CC4)C3)cc1)=N[C@@H](C)c1nnc(C)n1-2 [III-235] and Cc1sc2c(c1C)C(c1ccc(N3CC(CC4(O)CN(CC5CN(c6ccc([C@@H]7c8ccc(O)cc8CC[C@@H]7c7ccccc7)cc6)C5)C4)C3)cc1)=NC(C)c1nnc(C)n1-2 (stereo partly drawn) [III-240] cannot be ordered by GI50: less than 50 nM for the first, less than 50 nM for the second.

First: Cc1sc2c(c1C)C(c1ccc(N3CCC(O)(CN4CCN(c5cc(F)c([C@@H]6c7ccc(O)cc7CC[C@@H]6c6ccc(F)cc6)c(F)c5)CC4)CC3)cc1)=N[C@@H](C)c1nnc(C)n1-2 [III-236]
Second: Cc1sc2c(c1C)C(c1ccc(N3CCC(O)(CN4CCN(c5cc(F)c([C@H]6c7ccc(O)cc7CC[C@H]6c6ccc(F)cc6)c(F)c5)CC4)CC3)cc1)=N[C@@H](C)c1nnc(C)n1-2 [III-237]
The GI50 of the first is lower: less than 50 nM for the first, 50 to 500 nM for the second.

First: Cc1sc2c(c1C)C(c1ccc(N3CC(CC4(O)CCN(CC5CN(c6ccc([C@H]7c8ccc(O)cc8CC[C@H]7c7ccc(F)cc7)cc6)C5)CC4)C3)cc1)=N[C@@H](C)c1nnc(C)n1-2 [III-238]
Second: Cc1sc2c(c1C)C(c1ccc(N3CC(CC4(O)CCN(CC5CN(c6ccc([C@@H]7c8ccc(O)cc8CC[C@@H]7c7ccc(F)cc7)cc6)C5)CC4)C3)cc1)=N[C@@H](C)c1nnc(C)n1-2 [III-239]
The GI50 of the first is higher: 50 to 500 nM for the first, less than 50 nM for the second.

Work on Cc1sc2c(c1C)C(c1ccc(N3CC(O)(CC4CN(CC5CN(c6ccc([C@@H]7c8ccc(O)cc8CC[C@@H]7c7ccccc7)cc6)C5)C4)C3)cc1)=N[C@@H](C)c1nnc(C)n1-2 [III-241] yielded a GI50 of less than 50 nM.

same assay, conditions: Table 7-A; T-Rex 293 cells with doxycycline (increased ERα expression); 72 hours; CellTiter-Glo; read-out: (+) Dox GI50

Work on Cc1sc2c(c1C)C(c1ccc(N3CC(CN4CC(CC5CN(c6ccc([C@@H]7c8ccc(O)cc8CC[C@@H]7c7ccccc7)cc6)C5)C4)C3)cc1)=N[C@@H](C)c1nnc(C)n1-2 [III-221] yielded a GI50 of less than 50 nM.

test system: MCF7 cells (ATCC #HTB-22); test: Cellular growth inhibition assay, MCF7 cells purchased from ATCC; format: cell-based; details: Homo sapiens, MCF7, 144 h, Table 8-A; MCF7 cells purchased from ATCC; six days; CellTiter-Glo; read-out: GI50
Summary of the method: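 GI50 values come from a four-parameter fit of CellTiter-Glo 2.0 luminescence after six days of compound exposure at 37° C. Seeding density depended on the source: 225 cells/well for ECACC MCF7, 1,500 for ATCC. Medium was RPMI 1640 with 10% FBS and 0.2 U/ml insulin.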

First: Cc1sc2c(c1C)C(c1ccc(N3CC4(CCC(CN5CCN(c6ccc([C@@H]7c8ccc(O)cc8CC[C@@H]7c7ccccc7)cc6)CC5)CC4)C3)cc1)=N[C@@H](C)c1nnc(C)n1-2 [III-230]
Second: Cc1sc2c(c1C)C(c1ccc(N3CC4(CC(CN5CCC(c6ccc([C@@H]7c8ccc(O)cc8CC[C@@H]7c7ccccc7)cc6)CC5)C4)C3)cc1)=N[C@@H](C)c1nnc(C)n1-2 [III-242]
The GI50 of the first is higher: 50 to 500 nM for the first, less than 50 nM for the second.

First: Cc1sc2c(c1C)C(c1ccc(N3CCN(CC4CCN(c5ccc([C@@H]6c7ccc(O)cc7CC[C@@H]6c6ccccc6)cc5)CC4)CC3)cc1)=N[C@H](Cc1nccs1)c1nnc(C)n1-2 [III-231]
Second: Cc1sc2c(c1C)C(c1ccc(N3CCN(CC4CCN(c5ccc([C@@H]6c7ccc(O)cc7CC[C@@H]6c6ccccc6)cc5)CC4)CC3)cc1)=N[C@@H](Cc1nccs1)c1nnc(C)n1-2 [III-232]
The GI50 of the first is higher: 500 to 2500 nM for the first, less than 50 nM for the second.

Cc1sc2c(c1C)C(c1ccc(N3CC(C[C@H]4CC[C@H](CN5CC(c6ccc([C@@H]7c8ccc(O)cc8CC[C@@H]7c7ccccc7)cc6)C5)CC4)C3)cc1)=N[C@@H](C)c1nnc(C)n1-2 [III-233] and Cc1sc2c(c1C)C(c1ccc(C3CN(C[C@H]4CC[C@H](CN5CC(c6ccc([C@@H]7c8ccc(O)cc8CC[C@@H]7c7ccccc7)cc6)C5)CC4)C3)cc1)=N[C@@H](C)c1nnc(C)n1-2 [III-234] fall in the same range of GI50: 50 to 500 nM for the first, 50 to 500 nM for the second.

Cc1sc2c(c1C)C(c1ccc(N3CC(CC4(O)CCN(CC5CN(c6ccc([C@@H]7c8ccc(O)cc8CC[C@@H]7c7ccccc7)cc6)C5)CC4)C3)cc1)=N[C@@H](C)c1nnc(C)n1-2 [III-235] and Cc1sc2c(c1C)C(c1ccc(N3CC(CC4(O)CN(CC5CN(c6ccc([C@@H]7c8ccc(O)cc8CC[C@@H]7c7ccccc7)cc6)C5)C4)C3)cc1)=NC(C)c1nnc(C)n1-2 (stereo partly drawn) [III-240] cannot be ordered by GI50: less than 50 nM for the first, less than 50 nM for the second.

Compared with Cc1sc2c(c1C)C(c1ccc(N3CCC(O)(CN4CCN(c5cc(F)c([C@@H]6c7ccc(O)cc7CC[C@@H]6c6ccc(F)cc6)c(F)c5)CC4)CC3)cc1)=N[C@@H](C)c1nnc(C)n1-2 [III-236], Cc1sc2c(c1C)C(c1ccc(N3CCC(O)(CN4CCN(c5cc(F)c([C@H]6c7ccc(O)cc7CC[C@H]6c6ccc(F)cc6)c(F)c5)CC4)CC3)cc1)=N[C@@H](C)c1nnc(C)n1-2 [III-237] is higher in GI50: less than 50 nM for the first, 50 to 500 nM for the second.

Compared with Cc1sc2c(c1C)C(c1ccc(N3CC(CC4(O)CCN(CC5CN(c6ccc([C@H]7c8ccc(O)cc8CC[C@H]7c7ccc(F)cc7)cc6)C5)CC4)C3)cc1)=N[C@@H](C)c1nnc(C)n1-2 [III-238], Cc1sc2c(c1C)C(c1ccc(N3CC(CC4(O)CCN(CC5CN(c6ccc([C@@H]7c8ccc(O)cc8CC[C@@H]7c7ccc(F)cc7)cc6)C5)CC4)C3)cc1)=N[C@@H](C)c1nnc(C)n1-2 [III-239] is lower in GI50: 50 to 500 nM for the first, less than 50 nM for the second.

Cc1sc2c(c1C)C(c1ccc(N3CC(O)(CC4CN(CC5CN(c6ccc([C@@H]7c8ccc(O)cc8CC[C@@H]7c7ccccc7)cc6)C5)C4)C3)cc1)=N[C@@H](C)c1nnc(C)n1-2 [III-241] gave a GI50 of less than 50 nM.

same assay, conditions: Table 8-A; MCF7 cells purchased from ATCC; six days; CellTiter-Glo; read-out: GI50

Work on Cc1sc2c(c1C)C(c1ccc(N3CC(CN4CC(CC5CN(c6ccc([C@@H]7c8ccc(O)cc8CC[C@@H]7c7ccccc7)cc6)C5)C4)C3)cc1)=N[C@@H](C)c1nnc(C)n1-2 [III-221] yielded a GI50 of less than 50 nM.
